# From patent publication US20110150873A1, “ANTI-INFLAMMATORY COMPOSITIONS AND COMBINATIONS” (CAMBRIDGE ENTERPRISE LIMITED, priority 2007, published 2011)
# Entries after “also recorded” stand apart in the source; their conditions may differ.
# Columns and labels:
# [1] = test system: leukocyte recruitment into the lung; assay: ovalbumin-sensitised rat model of asthma: total BAL leukocyte count; format: in vivo, Brown Norway rats; details: low dose alone: 0.03 mg/kg B′ or 0.01 mg/kg DMX, daily oral
# Experimental: (§1) Briefly, adult Brown Norway rats (200-300 g body weight; n=10 per group) are sensitised by a single interperitoneal injection of 0.1 mg Ovalbumin on day 0. Each rat then receives an intratracheal challenge with a solution of 1% ovalbumin (w/v) on day 8, and with 2% ovalbumin (w/v) on days 15, 18 and 21. The animals are then sacrificed 3 hours after the final challenge on day 21. Note that ovalbumin (Sigma; purest available grade) can be made endotoxin-free by passage over EndoTrap Red columns (purchased from Cambrex; used in accordance with the manufacturer's instructions), and the endotoxin level confirmed as <5 EU/mg protein using the LAL assay (QCL-1000; Cambrex; performed in accordance with the manufacturer's instructions; 1 mg of standard endotoxin contains ˜900,000 EU/mg). […]
# On sacrifice, total lung leukocyate recruitment is assessed by performing a broncheoalveolar lavage (BAL) using 4 lots of 3 ml sterile phosphate-buffered saline introduced through a tracheal cannula. For each animal, the BAL washes are combined, and the total cell population counted (using a haemocytometer).
# [2] = test system: Th1/Th2 polarisation axis; assay: ovalbumin-sensitised rat model of asthma: splenocyte Th1/Th2 ratio by flow cytometry; format: in vivo, Brown Norway rats; details: low dose B′ (0.03 mg/kg)
# Experimental: as §1, with “EU/mg). This ensures that the lung inflammation response results from the allergic response to the ovalbumin protein, rather than from unintended LPS stimulation which occurs even with the highest purity grade commercial ovalbumin preparations, and therefore ensures the model more closely represents the underlying molecular pathology of human asthma.” for “EU/mg).”
# The spleen is also removed from each mouse and placed in RPMI+10% FCS+antibiotics. […] The resulting cell suspensions are then centrifuged (328 g; 5 mins) and washed in RPMI+10% FCS+antibiotics, before being resuspended in fresh media and counted using a haemocytometer. […]
# [3] = test system: serum growth hormone (GH); assay: ovalbumin-sensitised rat model of asthma: serum growth hormone ELISA (side-effect measure); format: in vivo, Brown Norway rats
# Experimental: Briefly, adult Brown Norway rats (200-300 g body weight; n=10 per group) are sensitised by a single interperitoneal injection of 0.1 mg Ovalbumin on day 0. Each rat then receives an intratracheal challenge with a solution of 1% ovalbumin (w/v) on day 8, and with 2% ovalbumin (w/v) on days 15, 18 and 21. The animals are then sacrificed 3 hours after the final challenge on day 21. Note that ovalbumin (Sigma; purest available grade) can be made endotoxin-free by passage over EndoTrap Red columns (purchased from Cambrex; used in accordance with the manufacturer's instructions), and the endotoxin level confirmed as <5 EU/mg protein using the LAL assay (QCL-1000; Cambrex; performed in accordance with the manufacturer's instructions; 1 mg of standard endotoxin contains ˜900,000 EU/mg). This ensures that the lung inflammation response results from the allergic response to the ovalbumin protein, rather than from unintended LPS stimulation which occurs even with the highest purity grade commercial ovalbumin preparations, and therefore ensures the model more closely represents the underlying molecular pathology of human asthma.
# One group of mice (acting as a baseline control) receives no ovalbumin challenges, but are otherwise treated identically. A second group (positive control) receives the challenges but no drug treatment. Further groups are treated identically, but receive daily dosage with: (a) (S)-3-(2′,2′-dimethylpropanoylamino)-tetrahydropyridin-2-one (B′) at a dose of either 0.3 mg/kg or 0.03 mg/kg via oral gavage from day 8 until day 21, with dosage being given 1 hr prior to any subsequent challenge with ovalbumin made on the same day. […]
# Serum is also prepared from a terminal bleed, and levels of GH are measured using a commercially available ELISA (Diagnostic Systems Laboratories, Inc; DSLabs) in accordance with the manufacturer's instructions.
# LPS-induced serum TNF-α = assay: sub-lethal LPS-induced endotoxemia assay; format: in vivo, adult female CD-1 mice; details: for % Inhibition of LPS-induced serum TNF-α, Mean: oral route, six mice
# From the text: In this assay, mice are given a non-specific pro-inflammatory challenge using bacterial endotoxin (LPS), and the extent of the systemic inflammatory response (measured by serum levels of the central pro-inflammatory cytokine TNF-α, which is essentially absent from the blood under normal conditions, but is rapidly elevated in response to a wide range of inflammatory stimuli). We have selected this model, even though it is not, itself, a particularly close model of any human inflammatory disease condition, because TNF-α is known to be important in very many diseases (including rheumatoid arthritis, autoimmune disorders, Crohn's Disease, atherosclerosis, asthma and many more). Consequently, agents which suppress TNF-α production are already used clinically (e.g. etanercept (Enbrel™) and other anti-TNF-α antibody products, such as infliximab (Remicade™) and adalimumab (Humira™)) to treat a wide range of such diseases.
# Mice (adult female CD-1 mice in groups of 6) were pretreated with various doses of each compound, either by the subcutaneous route 30 mins prior to LPS challenge, or by the oral route (via gavage) 60 mins prior to LPS. The mice were then challenged with an intraperitoneal injection of 750 μg of bacterial LPS and sacrificed 2 hours later. Serum was prepared from a terminal bleed by cardiac puncture, and the concentration of TNF-α determined by ELISA (R&D Systems). In each experiment, a group of 6 mice receive no LPS to act as a negative control, and a second group receive only LPS (with no candidate inhibitor). The level of TNF-α in serum from these animals which received LPS without drug pre-treatment is arbitrarily set to 100% (and is typically of the order of 6,000 pg/ml, compared with levels of <10 pg/ml among the negative control group, which received no LPS).
compound,measurement,setting,value
"CC(C)(C)C(=O)N[C@H]1CCCNC1=O [B′, (S)-3-(2′,2′-dimethylpropanoylamino)-tetrahydropyridin-2-one]",effect on leukocyte accumulation in the lung,[1],"ineffective; also recorded: neither compound, when administered alone, has a statistically significant effect"
same,re-balancing of the Th1/Th2 axis,[2],statistically significant Th1 shift
same,significant suppression of serum GH levels,[3]; B′ alone,not
(S)-3-(adamantylamino)-caprolactam [B],"% Inhibition of LPS-induced serum TNF-α, Mean","LPS-induced serum TNF-α; Experiment 1, B 3 × 10^−6 mg",34%
same,"% Inhibition of LPS-induced serum TNF-α, Mean",LPS-induced serum TNF-α; Experiment 1,15%
same,"% Inhibition of LPS-induced serum TNF-α, Mean","LPS-induced serum TNF-α; Experiment 2, B 3 × 10^−6 mg",54%
same,"% Inhibition of LPS-induced serum TNF-α, Mean",LPS-induced serum TNF-α; Experiment 2,34%
same,anti-inflammatory effect on the TNF-α response,LPS-induced serum TNF-α; administered separately: 0.3 μg per mouse DMX or 0.1 μg/mouse B,minor anti-inflammatory effect which was not statistically significant in every experiment
"C[C@@H]1C[C@H]2[C@@H]3CCC4=CC(=O)C=C[C@]4(C)[C@@]3(F)[C@@H](O)C[C@]2(C)[C@@]1(O)C(=O)CO [DMX, Dexamethasone, reference compound]",suppression of serum GH levels,[3]; high dose DMX (1 mg/kg),≤ 80%
same,suppression of serum GH levels,[3]; low dose DMX (0.01 mg/kg),approximately 10%
same,"% Inhibition of LPS-induced serum TNF-α, Mean","LPS-induced serum TNF-α; Experiment 1, DMX 3 × 10^−7 mg",19%
same,"% Inhibition of LPS-induced serum TNF-α, Mean","LPS-induced serum TNF-α; Experiment 2, DMX 3 × 10^−7 mg",37%
